Laboratory results taken from article PMC5218480 (PLoS ONE, 2017).

Tested on: MV-4-11 cells
Assay: Gene expression microarray analysis (Affymetrix PrimeView) and GSEA
Format: cell-based, human
Parameters: RFU PODN (11730768_x_at) / Fold change /veh PODN (11730768_x_at) / RFU LINC00158 (11744669_a_at) / Fold change /veh LINC00158 (11744669_a_at) / RFU DUSP10 (11751237_a_at) / Fold change /veh DUSP10 (11751237_a_at) / RFU ID3 (11757404_x_at) / Fold change /veh ID3 (11757404_x_at) / RFU PLEKHG5 (11737974_s_at) / Fold change /veh PLEKHG5 (11737974_s_at) / RFU LRRC4B (11730491_at) / Fold change /veh LRRC4B (11730491_at) / RFU GIMAP4 (11747438_a_at) / Fold change /veh GIMAP4 (11747438_a_at) / RFU KRT8 (11758183_x_at) / Fold change /veh KRT8 (11758183_x_at) / RFU CNN1 (11734310_a_at) / Fold change /veh CNN1 (11734310_a_at) / RFU VPS37D (11726825_at) / Fold change /veh VPS37D (11726825_at) / RFU C10orf10 (11716522_x_at) / Fold change /veh C10orf10 (11716522_x_at) / RFU KIR2DL2 /// KIR2DL4 /// KIR2DL5A /// KIR2DL5B /// KIR2DS1 /// KIR2DS2 /// KIR2DS3 /// KIR2DS4 /// KIR3DL3 /// KIR3DL3 /// KIR3DS1 (11738374_at) / Fold change /veh KIR2DL2 /// KIR2DL4 /// KIR2DL5A /// KIR2DL5B /// KIR2DS1 /// KIR2DS2 /// KIR2DS3 /// KIR2DS4 /// KIR3DL3 /// KIR3DL3 /// KIR3DS1 (11738374_at) / RFU C1QL1 (11718748_at) / Fold change /veh C1QL1 (11718748_at) / RFU TMPRSS4 (11747572_a_at) / Fold change /veh TMPRSS4 (11747572_a_at) / RFU HAMP (11756126_x_at) / Fold change /veh HAMP (11756126_x_at) / RFU RNFT2 (11725882_a_at) / Fold change /veh RNFT2 (11725882_a_at) / RFU NR4A2 (11747474_a_at) / Fold change /veh NR4A2 (11747474_a_at) / RFU ABCC12 (11746883_a_at) / Fold change /veh ABCC12 (11746883_a_at) / RFU TMEM136 (11760407_x_at) / Fold change /veh TMEM136 (11760407_x_at) / RFU CLDN22 /// WWC2 (11732394_at) / Fold change /veh CLDN22 /// WWC2 (11732394_at) / RFU HLA-DPB1 (11760878_x_at) / Fold change /veh HLA-DPB1 (11760878_x_at) / RFU SPINT1 (11716480_a_at) / Fold change /veh SPINT1 (11716480_a_at) / RFU GAP43 (11754022_s_at) / Fold change /veh GAP43 (11754022_s_at) / RFU A4GNT (11735810_at) / Fold change /veh A4GNT (11735810_at) / RFU PRB3 (11715151_x_at) / Fold change /veh PRB3 (11715151_x_at) / RFU TUBB4B (11761932_at) / Fold change /veh TUBB4B (11761932_at) / RFU CAPN14 (11732068_a_at) / Fold change /veh CAPN14 (11732068_a_at) / RFU TMCC2 (11721928_a_at) / Fold change /veh TMCC2 (11721928_a_at) / RFU IRGQ (11745062_a_at) / Fold change /veh IRGQ (11745062_a_at) / RFU FAM174B (11720279_a_at) / Fold change /veh FAM174B (11720279_a_at) / RFU TMPRSS4 (11748680_a_at) / Fold change /veh TMPRSS4 (11748680_a_at) / RFU FAM212B (11763350_a_at) / Fold change /veh FAM212B (11763350_a_at) / RFU PLEKHG5 (11743358_a_at) / Fold change /veh PLEKHG5 (11743358_a_at) / RFU ZSCAN30 (11745921_a_at) / Fold change /veh ZSCAN30 (11745921_a_at) / RFU CMKLR1 (11741424_a_at) / Fold change /veh CMKLR1 (11741424_a_at) / RFU LOC101060620 /// MAPK8IP1 (11723275_at) / Fold change /veh LOC101060620 /// MAPK8IP1 (11723275_at) / RFU SPTSSB (11747773_x_at) / Fold change /veh SPTSSB (11747773_x_at) / RFU PRSS12 (11739890_at) / Fold change /veh PRSS12 (11739890_at) / RFU BIN1 (11741810_x_at) / Fold change /veh BIN1 (11741810_x_at) / RFU WNT11 (11732464_a_at) / Fold change /veh WNT11 (11732464_a_at) / RFU C10orf10 (11716521_a_at) / Fold change /veh C10orf10 (11716521_a_at) / RFU C5orf56 (11738089_at) / Fold change /veh C5orf56 (11738089_at) / RFU CYB561 (11721691_x_at) / Fold change /veh CYB561 (11721691_x_at) / RFU ANKRD19P (11752326_a_at) / Fold change /veh ANKRD19P (11752326_a_at) / RFU OR2T12 /// OR2T33 /// OR2T8 (11738714_s_at) / Fold change /veh OR2T12 /// OR2T33 /// OR2T8 (11738714_s_at) / RFU VCAN (11748164_a_at) / Fold change /veh VCAN (11748164_a_at) / RFU JSRP1 (11732532_at) / Fold change /veh JSRP1 (11732532_at) / RFU KRTAP10-11 (11738290_x_at) / Fold change /veh KRTAP10-11 (11738290_x_at) / RFU MYO3A (11730013_a_at) / Fold change /veh MYO3A (11730013_a_at) / RFU EBF3 (11725865_a_at) / Fold change /veh EBF3 (11725865_a_at) / RFU CAMK2N1 (11719241_x_at) / Fold change /veh CAMK2N1 (11719241_x_at) / RFU C5orf56 (11738088_a_at) / Fold change /veh C5orf56 (11738088_a_at) / RFU OLFML3 (11715873_a_at) / Fold change /veh OLFML3 (11715873_a_at) / RFU LOC100653217 /// NTM (11731650_a_at) / Fold change /veh LOC100653217 /// NTM (11731650_a_at) / RFU MAPK11 (11762145_a_at) / Fold change /veh MAPK11 (11762145_a_at) / RFU FIZ1 (11724087_x_at) / Fold change /veh FIZ1 (11724087_x_at) / RFU OASL (11726364_x_at) / Fold change /veh OASL (11726364_x_at) / RFU SOX15 (11748057_x_at) / Fold change /veh SOX15 (11748057_x_at) / RFU CD79A (11719716_a_at) / Fold change /veh CD79A (11719716_a_at) / RFU HIST1H1D (11736915_at) / Fold change /veh HIST1H1D (11736915_at) / RFU CASKIN2 (11723855_a_at) / Fold change /veh CASKIN2 (11723855_a_at) / RFU LOC730098 (11760151_x_at) / Fold change /veh LOC730098 (11760151_x_at) / RFU OR4N2 (11742367_at) / Fold change /veh OR4N2 (11742367_at) / RFU PRRT2 (11749266_a_at) / Fold change /veh PRRT2 (11749266_a_at) / RFU SNX32 (11753110_a_at) / Fold change /veh SNX32 (11753110_a_at) / RFU CDHR5 (11726645_a_at) / Fold change /veh CDHR5 (11726645_a_at) / RFU RCAN1 (11760418_a_at) / Fold change /veh RCAN1 (11760418_a_at) / RFU FAM167A (11723789_a_at) / Fold change /veh FAM167A (11723789_a_at) / RFU FAM26E (11764081_at) / Fold change /veh FAM26E (11764081_at) / RFU ISYNA1 (11749810_s_at) / Fold change /veh ISYNA1 (11749810_s_at) / RFU ACY1 (11761880_at) / Fold change /veh ACY1 (11761880_at) / RFU 11764098_at / Fold change /veh 11764098_at / RFU SAMD14 (11745864_x_at) / Fold change /veh SAMD14 (11745864_x_at) / RFU NPB (11741838_a_at) / Fold change /veh NPB (11741838_a_at) / RFU TMPRSS6 (11731388_a_at) / Fold change /veh TMPRSS6 (11731388_a_at) / RFU KRTAP10-2 (11738614_at) / Fold change /veh KRTAP10-2 (11738614_at) / RFU ARHGAP8 /// PRR5-ARHGAP8 (11727945_x_at) / Fold change /veh ARHGAP8 /// PRR5-ARHGAP8 (11727945_x_at) / RFU KRTAP5-7 /// NADSYN1 (11734609_at) / Fold change /veh KRTAP5-7 /// NADSYN1 (11734609_at) / RFU RASL12 (11751679_a_at) / Fold change /veh RASL12 (11751679_a_at) / RFU CDKN2B (11736163_a_at) / Fold change /veh CDKN2B (11736163_a_at) / RFU PRF1 (11729649_at) / Fold change /veh PRF1 (11729649_at) / RFU, ZNF638 /// ZNF638-IT1 / Fold change vs veh, ZNF638 /// ZNF638-IT1 / RFU, PANK3 / Fold change vs veh, PANK3 / RFU, SH3YL1 / Fold change vs veh, SH3YL1 / RFU, ZEB2 / Fold change vs veh, ZEB2 / RFU, NRIP1 / Fold change vs veh, NRIP1 / RFU, PTTG1IP / Fold change vs veh, PTTG1IP / RFU, CAPN2 / Fold change vs veh, CAPN2 / RFU, MED14 / Fold change vs veh, MED14 / RFU, SNORA58 / Fold change vs veh, SNORA58 / RFU, C1orf63 / Fold change vs veh, C1orf63 / RFU, LRRFIP1 / Fold change vs veh, LRRFIP1 / RFU, NDUFAF7 / Fold change vs veh, NDUFAF7 / RFU, SLC12A2 / Fold change vs veh, SLC12A2 / RFU, IBTK / Fold change vs veh, IBTK / RFU, ESF1 / Fold change vs veh, ESF1 / Fold change vs veh, TMEM50B / RFU, TAOK1 / Fold change vs veh, TAOK1 / RFU, ACBD3 / Fold change vs veh, ACBD3 / RFU, TMA16 / Fold change vs veh, TMA16 / RFU, RWDD3 / Fold change vs veh, RWDD3 / RFU, BCAT1 / Fold change vs veh, BCAT1 / RFU, EDEM3 / Fold change vs veh, EDEM3 / RFU, TMEM33 / Fold change vs veh, TMEM33 / RFU, WDR75 / Fold change vs veh, WDR75 / RFU, AHCTF1 / Fold change vs veh, AHCTF1 / RFU, TFRC / Fold change vs veh, TFRC / RFU, ZDHHC17 / Fold change vs veh, ZDHHC17 / RFU, NOM1 / Fold change vs veh, NOM1 / RFU, ARL8B / Fold change vs veh, ARL8B / RFU, ZBTB11 / Fold change vs veh, ZBTB11 / RFU, TAMM41 / Fold change vs veh, TAMM41 / RFU, KIAA1704 /// LOC100996395 / Fold change vs veh, KIAA1704 /// LOC100996395 / RFU, ING1 / Fold change vs veh, ING1 / RFU, TRMT61B / Fold change vs veh, TRMT61B / RFU, FUBP3 / Fold change vs veh, FUBP3 / RFU, TP53 / Fold change vs veh, TP53 / RFU, TNKS2 / Fold change vs veh, TNKS2 / RFU, ZFP14 / Fold change vs veh, ZFP14 / RFU, ACTR2 / Fold change vs veh, ACTR2 / RFU, PPP3R1 / Fold change vs veh, PPP3R1 / RFU, PIK3R1 / Fold change vs veh, PIK3R1 / RFU, HNRNPA1 / Fold change vs veh, HNRNPA1 / RFU, RNF170 / Fold change vs veh, RNF170 / RFU, ZNF28 / Fold change vs veh, ZNF28 / RFU, RNGTT / Fold change vs veh, RNGTT / RFU, OGT / Fold change vs veh, OGT / RFU, BRD1 / Fold change vs veh, BRD1 / RFU, MARS / Fold change vs veh, MARS / RFU, ZNF655 / Fold change vs veh, ZNF655 / RFU, FAHD1 / Fold change vs veh, FAHD1 / RFU, BDP1 / Fold change vs veh, BDP1 / RFU, LRRCC1 / Fold change vs veh, LRRCC1 / RFU, ARID1A / Fold change vs veh, ARID1A / RFU, ZNF146 / Fold change vs veh, ZNF146 / RFU, ZNF330 / Fold change vs veh, ZNF330 / RFU, GPN3 / Fold change vs veh, GPN3 / RFU, C9orf123 / Fold change vs veh, C9orf123 / RFU, N4BP2L2 / Fold change vs veh, N4BP2L2 / RFU, ARFIP1 / Fold change vs veh, ARFIP1 / RFU, FAM179B / Fold change vs veh, FAM179B / RFU, BCL10 / Fold change vs veh, BCL10 / RFU, UHRF1BP1L / Fold change vs veh, UHRF1BP1L / RFU, BET1 / Fold change vs veh, BET1 / RFU, CNOT2 / Fold change vs veh, CNOT2 / RFU, ZNF268 / Fold change vs veh, ZNF268 / Fold change vs veh, ZNF507 / RFU, DGCR2 / Fold change vs veh, DGCR2 / RFU, WDSUB1 / Fold change vs veh, WDSUB1 / Fold change vs veh, HSP90B1 /// MIR3652 / RFU, ADSS / Fold change vs veh, ADSS / RFU, GK / Fold change vs veh, GK / RFU, ZNF148 / Fold change vs veh, ZNF148 / RFU, TAF9 / Fold change vs veh, TAF9 / RFU, SLC1A5 / Fold change vs veh, SLC1A5 / RFU, SLMO2 / Fold change vs veh, SLMO2 / RFU, ABCC4 / Fold change vs veh, ABCC4 / RFU, LOC101060439 /// RAP1B / Fold change vs veh, LOC101060439 /// RAP1B / RFU, RFX7 / Fold change vs veh, RFX7 / RFU, GTPBP10 / Fold change vs veh, GTPBP10 / RFU, CNEP1R1 / Fold change vs veh, CNEP1R1 / RFU, BIVM-ERCC5 /// ERCC5 / Fold change vs veh, BIVM-ERCC5 /// ERCC5 / RFU, ILF3 / Fold change vs veh, ILF3 / RFU 11762660_at / Fold change /veh 11762660_at / RFU VCAN (11757783_s_at) / Fold change /veh VCAN (11757783_s_at) / RFU DDX43 (11728927_at) / Fold change /veh DDX43 (11728927_at) / RFU KRT8 (11758188_x_at) / Fold change /veh KRT8 (11758188_x_at) / RFU NKD1 (11759106_at) / Fold change /veh NKD1 (11759106_at) / RFU SRD5A1 (11742802_a_at) / Fold change /veh SRD5A1 (11742802_a_at) / RFU TPSAB1 /// TPSB2 (11721975_s_at) / Fold change /veh TPSAB1 /// TPSB2 (11721975_s_at) / RFU GSTM3 (11746129_a_at) / Fold change /veh GSTM3 (11746129_a_at) / RFU IL23R (11737362_x_at) / Fold change /veh IL23R (11737362_x_at) / RFU TMEM51 (11727254_a_at) / Fold change /veh TMEM51 (11727254_a_at) / RFU PIWIL2 (11732686_x_at) / Fold change /veh PIWIL2 (11732686_x_at) / RFU ORM1 (11744905_x_at) / Fold change /veh ORM1 (11744905_x_at) / RFU CCDC152 (11743942_at) / Fold change /veh CCDC152 (11743942_at) / RFU ECM1 (11717891_a_at) / Fold change /veh ECM1 (11717891_a_at) / RFU IL23R (11748794_a_at) / Fold change /veh IL23R (11748794_a_at) / RFU TNFAIP8L3 (11732012_x_at) / Fold change /veh TNFAIP8L3 (11732012_x_at) / RFU MBOAT4 (11741988_at) / Fold change /veh MBOAT4 (11741988_at) / RFU 11764193_at / Fold change /veh 11764193_at / RFU TMEM53 (11763286_at) / Fold change /veh TMEM53 (11763286_at) / RFU MAGEB2 (11727129_at) / Fold change /veh MAGEB2 (11727129_at) / RFU TMEM200A (11744735_a_at) / Fold change /veh TMEM200A (11744735_a_at) / RFU CCDC152 (11751479_a_at) / Fold change /veh CCDC152 (11751479_a_at) / RFU FAM211A (11726209_a_at) / Fold change /veh FAM211A (11726209_a_at) / RFU RGS16 (11746705_a_at) / Fold change /veh RGS16 (11746705_a_at) / RFU VCAN (11755009_s_at) / Fold change /veh VCAN (11755009_s_at) / RFU RHOB (11743442_s_at) / Fold change /veh RHOB (11743442_s_at) / RFU RGS16 (11720943_a_at) / Fold change /veh RGS16 (11720943_a_at) / RFU RGS16 (11720944_at) / Fold change /veh RGS16 (11720944_at) / RFU, VPS4B / Fold change vs veh, VPS4B / RFU, CREB1 / Fold change vs veh, CREB1 / RFU, DNAJC13 / Fold change vs veh, DNAJC13 / RFU, GNAQ / Fold change vs veh, GNAQ / RFU, CDK5R1 / Fold change vs veh, CDK5R1 / RFU, ZRANB3 / Fold change vs veh, ZRANB3 / RFU, CUL4A / Fold change vs veh, CUL4A / RFU, CCNY / Fold change vs veh, CCNY / RFU, UFL1 / Fold change vs veh, UFL1 / RFU, COG3 / Fold change vs veh, COG3 / RFU, DIAPH2 / Fold change vs veh, DIAPH2 / RFU, SKA2 / Fold change vs veh, SKA2 / RFU, AFF3 / Fold change vs veh, AFF3 / RFU, LMF1 / Fold change vs veh, LMF1 / RFU, IPO11 / Fold change vs veh, IPO11 / RFU, DFFB / Fold change vs veh, DFFB / RFU, FOXP1 / Fold change vs veh, FOXP1 / RFU, CARD8 / Fold change vs veh, CARD8 / RFU, STRN3 / Fold change vs veh, STRN3 / RFU, ADK / Fold change vs veh, ADK / RFU, RASSF2 / Fold change vs veh, RASSF2 / RFU, WIPF1 / Fold change vs veh, WIPF1 / RFU, LARP1B / Fold change vs veh, LARP1B / RFU, RASA1 / Fold change vs veh, RASA1 / RFU, RB1 / Fold change vs veh, RB1 / RFU, PPFIA1 / Fold change vs veh, PPFIA1 / RFU, MAT2A / Fold change vs veh, MAT2A / RFU, CCT5 / Fold change vs veh, CCT5 / RFU, WDR92 / Fold change vs veh, WDR92 / RFU, CUX1 / Fold change vs veh, CUX1 / RFU, TTC7A / Fold change vs veh, TTC7A / RFU, TMEM135 / Fold change vs veh, TMEM135 / RFU, DEPTOR / Fold change vs veh, DEPTOR / RFU, CPM / Fold change vs veh, CPM / RFU, DNAJB6 / Fold change vs veh, DNAJB6 / RFU, CACNA2D3 / Fold change vs veh, CACNA2D3 / RFU, DTX4 / Fold change vs veh, DTX4 / RFU, TFCP2 / Fold change vs veh, TFCP2 / RFU, GMCL1 /// GMCL1P1 / Fold change vs veh, GMCL1 /// GMCL1P1 / RFU, AEBP2 / Fold change vs veh, AEBP2 / RFU, SNHG1 /// SNORD22 /// SNORD25 /// SNORD26 /// SNORD27 /// SNORD28 /// SNORD29 /// SNORD31 / Fold change vs veh, SNHG1 /// SNORD22 /// SNORD25 /// SNORD26 /// SNORD27 /// SNORD28 /// SNORD29 /// SNORD31 / Fold change (Aza/veh), C12orf56 (ProbeSet 11735607_a_at) / Fold change (ACY-1035/veh), C12orf56 (ProbeSet 11735607_a_at) / Fold change (Aza/veh), FGFR1OP (ProbeSet 11751329_s_at) / Fold change (ACY-1035/veh), FGFR1OP (ProbeSet 11751329_s_at) / Fold change (Aza/veh), VPS36 (ProbeSet 11739960_a_at) / Fold change (ACY-1035/veh), VPS36 (ProbeSet 11739960_a_at) / RFU SYPL1 (11715823_x_at) / Fold change /veh SYPL1 (11715823_x_at) / RFU IGFBP7 (11715501_s_at) / Fold change /veh IGFBP7 (11715501_s_at) / RFU REEP3 (11722064_at) / Fold change /veh REEP3 (11722064_at) / RFU IGLL1 (11728026_x_at) / Fold change /veh IGLL1 (11728026_x_at): dose or concentration left out as unconfirmed
Conditions: ProbeSet 11725100_s_at; LIST B

In the case of `Nc1ncn([C@@H]2O[C@H](CO)[C@@H](O)[C@H]2O)c(=O)n1` [azacitidine], the “Fold change vs veh, ESF1” value is reported as 0.96.
